Data from patent US10405750B2, “Nonradiative voltage-sensitive dye for imaging neuronal action potential” (Washington University, priority 2014, dated 2019).

What was measured:
[1] = test system: mouse brains
[2] = commercially available dyes to be tested; cited from earlier work

Compound | Abs.: peak absorption wavelength [2] | also measured
Nc1ccncc1 [4-AP, 4-am inopyridine] |  | PA waveforms (DPA-stained cortex) after 4-AP ([1]; mouse, in vivo): large-amplitude high-frequency waveforms consistent with epileptiform discharges; behavioural effect in mice ([1]; mouse, in vivo): signs of convulsions
CCN(CC)c1ccc2cc(/C=C/c3cc[n+](CC[N+](C)(C)C)cc3)ccc2c1.[Br-].[Br-] [Di-2-ANEPEQ] | 517 nm | 
CCCCCCCCCCCCN(CCCCCCCCCCCC)c1ccc2cc(/C=C/c3cc[n+](CCC[N+](C)(C)C)cc3)ccc2c1.[Br-].[Br-] [Di-12-ANEPPQ] | 519 nm | 
CCCCN1C(=O)/C(=C/C=C/C=C2/C=CN(CCCCS(=O)(=O)[O-])c3ccccc32)SC1=S.[Na+] [NK 2761] | 716 nm | 
CCCCN(CCCC)c1ccc(/C=C/C=C/c2cc[n+](CCCCS(=O)(=O)[O-])cc2)cc1 [RH 160] | 530 nm | 
CCCCN(CCCC)c1ccc(/C=C/C=C/C=C/c2cc[n+](CCCCS(=O)(=O)[O-])cc2)cc1 [RH 237] | 528 nm | 
CCN(CC)c1ccc(/C=C/C=C/c2cc[n+](CCC[N+](CC)(CC)CC)cc2)cc1.[Br-].[Br-] [RH 414] | 532 nm | 
CCN(CC)c1ccc(/C=C/C=C/c2cc[n+](CC(O)C[N+](C)(C)CCO)cc2)cc1.[Br-].[Br-] (stereo not shown) [RH 795] | 530 nm | 
FC(F)OC(Cl)C(F)(F)F (stereo not shown) [isoflurane] |  | PA signal (DPA-stained cortex) after prolonged isoflurane ([1]; 5% isoflurane, prolonged exposure (30 minutes), after 4-AP): suppression of photoacoustic signal change
